In PubChem BioAssay AID330 (DTP/NCI, 2004) one finds T/C data, which are given here for 23 compounds.

Toxic doses and inconclusive results are not listed.

The assay relates to P388 leukemia ip, CD2F1 mice, survival T/C. Nature of the assay: NCI In Vivo Anticancer Drug Screen. Data for tumor model P388 Leukemia (intraperitoneal) in CD2F1 (CDF1) mice. Conditions: endpoint: median survival time, higher = longer survival. Summed up: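 Mice carrying the transplanted tumor received test compound or vehicle. Survival was recorded in each group, and the value is the treated-group measurement divided by that of the vehicle-treated control group.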

The mark [1] stands for this setting: dose: 60.0 mg/kg/injection, schedule: Q01DX005 (ip), vehicle: saline with Tween-80.
[2] abbreviates: dose: 120.0 mg/kg/injection, schedule: Q01DX005 (ip), vehicle: saline with Tween-80.
Where [3] appears, read: dose: 240.0 mg/kg/injection, schedule: Q01DX005 (ip), vehicle: saline with Tween-80.
[4] abbreviates: dose: 50.0 mg/kg/injection, schedule: Q01DX005 (ip), vehicle: Klucel (hydroxypropylcellulose) (HPC).
Where [5] appears, read: dose: 100.0 mg/kg/injection, schedule: Q01DX005 (ip), vehicle: Klucel (hydroxypropylcellulose) (HPC).
Where [6] appears, read: dose: 200.0 mg/kg/injection, schedule: Q01DX005 (ip), vehicle: Klucel (hydroxypropylcellulose) (HPC).
The mark [7] stands for this setting: dose: 60.0 mg/kg/injection, schedule: Q01DX005 (ip), vehicle: Klucel (hydroxypropylcellulose) (HPC).
Setting [8] is: dose: 120.0 mg/kg/injection, schedule: Q01DX005 (ip), vehicle: Klucel (hydroxypropylcellulose) (HPC).
Setting [9] is: dose: 240.0 mg/kg/injection, schedule: Q01DX005 (ip), vehicle: Klucel (hydroxypropylcellulose) (HPC).
The mark [10] stands for this setting: dose: 50.0 mg/kg/injection, schedule: Q01DX009 (ip), vehicle: Klucel (hydroxypropylcellulose) (HPC).
The mark [11] stands for this setting: dose: 100.0 mg/kg/injection, schedule: Q01DX009 (ip), vehicle: Klucel (hydroxypropylcellulose) (HPC).

Take `N#Cc1nc2c(nc1C#N)-c1ccccc1/C2=C1/C(=O)Cc2ccccc21`: the T/C by setting is: under setting [1], 98 % of control; under setting [2], 99 % of control; under setting [3], 102 % of control.
For the compound `C=CCNC(=S)Nc1ccccn1`, the T/C (dose: 50.0 mg/kg/injection, schedule: Q01DX005 (ip), vehicle: saline with Tween-80) was 104 % of control; the T/C (dose: 100.0 mg/kg/injection, schedule: Q01DX005 (ip), vehicle: saline with Tween-80) was 100 % of control; the T/C (dose: 200.0 mg/kg/injection, schedule: Q01DX005 (ip), vehicle: saline with Tween-80) is 102 % of control.
On to `N/C(=N\Cl)C(Cl)(Cl)Cl`, for which the T/C (dose: 16.5 mg/kg/injection, schedule: Q01DX009 (ip), vehicle: saline) was 113 % of control; the T/C (dose: 25.0 mg/kg/injection, schedule: Q01DX009 (ip), vehicle: saline) was 106 % of control; the T/C (dose: 37.5 mg/kg/injection, schedule: Q01DX009 (ip), vehicle: saline) was 111 % of control.
Consider `COc1ccc2c(c1)OC(C)(C)C(c1ccccc1)C2c1ccc(OCCBr)c([N+](=O)[O-])c1` (stereo not given), for which the T/C by setting is: under setting [4], 101 % of control; under setting [5], 105 % of control; under setting [6], 97 % of control.
As for `Nc1cc(N)c(Nc2ccccc2)cc1Nc1ccccc1`, the T/C was 99 % of control (dose: 100.0 mg/kg/injection, schedule: Q01DX001 (ip), vehicle: Klucel (hydroxypropylcellulose) (HPC)); 101 % of control (dose: 200.0 mg/kg/injection, schedule: Q01DX001 (ip), vehicle: Klucel (hydroxypropylcellulose) (HPC)); 97 % of control (dose: 400.0 mg/kg/injection, schedule: Q01DX001 (ip), vehicle: Klucel (hydroxypropylcellulose) (HPC)).
Regarding `O=[N+]([O-])c1ccccc1NC1CCN(CCCC2(c3ccc(F)cc3)OCCO2)CC1`, the T/C runs as follows: under setting [1], 97 % of control; under setting [2], 101 % of control; under setting [3], 99 % of control.
As to `CSc1nc(NC2OCC(O)C(O)C2O)c(C=O)c(=O)[nH]1` (stereo not given), the T/C runs as follows: (dose: 15.0 mg/kg/injection, schedule: Q01DX005 (ip), vehicle: saline with Tween-80) 97 % of control; (dose: 30.0 mg/kg/injection, schedule: Q01DX005 (ip), vehicle: saline with Tween-80) 109 % of control; under setting [1], 95 % of control.
For `Clc1ccc(N=NN2CCOC2)cc1`, the T/C is 115 % of control under setting [1] and 109 % of control under setting [2].
Regarding `CSc1nc(-c2ccccc2)c(C(=O)NC(C)CN2CCCCC2)s1` (stereo not given), the T/C reads like this: under setting [1], 95 % of control; under setting [2], 100 % of control.
`NNS(=O)(=O)c1ccc(Cl)cc1`: the T/C runs as follows: (dose: 25.0 mg/kg/injection, schedule: Q01DX009 (ip), vehicle: other) 117 % of control; (dose: 50.0 mg/kg/injection, schedule: Q01DX009 (ip), vehicle: other) 113 % of control; (dose: 100.0 mg/kg/injection, schedule: Q01DX009 (ip), vehicle: other) 120 % of control; (dose: 200.0 mg/kg/injection, schedule: Q01DX009 (ip), vehicle: other) 120 % of control.
Take `Cc1ccc(NC(=O)Oc2ccc(C#N)cc2)cc1Cl`: the T/C runs as follows: under setting [7], 118 % of control; under setting [8], 111 % of control; under setting [9], 118 % of control.
Regarding `Nc1nc(N)nc(N(CCO)CCO)n1`, the T/C runs as follows: under setting [4], 111 % of control; under setting [5], 102 % of control; under setting [6], 106 % of control.
`CC(C)CCC(C)C1CCC2C3CC([N+](=O)[O-])=C4CC(OC(=O)c5ccccc5)CCC4(C)C3CCC12C` (stereo not given): the T/C is, setting by setting: (dose: 100.0 mg/kg/injection, schedule: Q04DX003 (ip), vehicle: saline with Tween-80) 90 % of control; (dose: 200.0 mg/kg/injection, schedule: Q04DX003 (ip), vehicle: saline with Tween-80) 90 % of control; (dose: 400.0 mg/kg/injection, schedule: Q04DX003 (ip), vehicle: saline with Tween-80) 90 % of control.
Consider `C=CCNC(=S)Nc1sc2c(c1C(=O)OCC)CCCC2`, for which the T/C is 93 % of control under setting [10]; 94 % of control under setting [11]; 89 % of control (dose: 200.0 mg/kg/injection, schedule: Q01DX009 (ip), vehicle: Klucel (hydroxypropylcellulose) (HPC)).
Consider `Clc1cccc(N=Cc2ccc(C=Nc3cccc(Cl)c3)cc2)c1`, for which the T/C under setting [10] is 94 % of control and the T/C under setting [11] was 98 % of control.
As for `O=S(CF)c1ccccc1` (stereo not given), the T/C runs as follows: (dose: 75.0 mg/kg/injection, schedule: Q04DX003 (ip), vehicle: saline) 91 % of control; (dose: 150.0 mg/kg/injection, schedule: Q04DX003 (ip), vehicle: saline) 101 % of control; (dose: 300.0 mg/kg/injection, schedule: Q04DX003 (ip), vehicle: saline) 107 % of control.
In the case of `COC(=O)C(C)NC(=O)C(C)NC(=O)c1cnc2ccccc2n1` (stereo not given), the T/C reads like this: under setting [1], 97 % of control; under setting [2], 99 % of control; under setting [3], 111 % of control.
As to `CN(N=O)c1ccc(N=Nc2ccccc2)cc1`, the T/C is 98 % of control under setting [7], 95 % of control under setting [8] and 86 % of control under setting [9].
As for `CCCCCN(CCC)CCCCCCCCCN1CCCc2cc(OC)ccc21`, the T/C was 105 % of control (dose: 50.0 mg/kg/injection, schedule: Q01DX005 (ip), vehicle: saline + Tween-80 + alcohol) and 110 % of control (dose: 100.0 mg/kg/injection, schedule: Q01DX005 (ip), vehicle: saline + Tween-80 + alcohol).
Consider `O=C(/C=C/c1c2ccccc2cc2ccccc12)c1ccc(C(=O)/C=C/c2c3ccccc3cc3ccccc23)cc1`, for which the T/C was 105 % of control (dose: 12.5 mg/kg/injection, schedule: Q01DX009 (ip), vehicle: saline with Tween-80) and 90 % of control (dose: 25.0 mg/kg/injection, schedule: Q01DX009 (ip), vehicle: saline with Tween-80).
As to `O=C(O)c1cc(-c2ccc(Cl)cc2)nc2c(-c3ccccc3)cccc12`, the T/C is 91 % of control (dose: 50.0 mg/kg/injection, schedule: Q01DX009 (ip), vehicle: saline with Tween-80); 103 % of control (dose: 100.0 mg/kg/injection, schedule: Q01DX009 (ip), vehicle: saline with Tween-80); 104 % of control (dose: 200.0 mg/kg/injection, schedule: Q01DX009 (ip), vehicle: saline with Tween-80).
Turning to `CC1(C#N)CCCC(c2ccccc2)(c2ccccc2)C1=O` (stereo not given), the T/C is 103 % of control (dose: 100.0 mg/kg/injection, schedule: Q04DX003 (ip), vehicle: Klucel (hydroxypropylcellulose) (HPC)); 98 % of control (dose: 200.0 mg/kg/injection, schedule: Q04DX003 (ip), vehicle: Klucel (hydroxypropylcellulose) (HPC)); 100 % of control (dose: 400.0 mg/kg/injection, schedule: Q04DX003 (ip), vehicle: Klucel (hydroxypropylcellulose) (HPC)).
Take `CNS(=O)(=O)c1c([O-])on[n+]1-c1ccccc1`: the T/C under setting [7] was 99 % of control, the T/C under setting [8] was 104 % of control and the T/C under setting [9] was 86 % of control.
